According to patent publication US20060159666A1, “Method of potentiating inflammatory and immune modulation for cell and drug therapy” (priority 2004, published 2006):

Key:
HUCBCs [1] = assay: 96-Chemotx migration assay of HUCBCs to recombinant chemoattractants; type: cell-based, human; details: MCP-1 5-30 ng/mL, IL-3 1-10 ng/mL, TPO 10-40 ng/mL; 4 hr; ATP luminescence
Method: HUCBCs were prepared as described above and cultured for 24 hr before use. The 96-Chemotx chambers (NeuroProbe, Gaithersburg, Md.) were used for the migration assays. The chamber is a 96-well plate consisting of bottom wells to hold the unknowns or chemoattractant and a top plate, which is a polycarbonate membrane with 5 μm pore size. […] All were pipetted (300 μL) directly into the bottom wells, in triplicate, after which the top plate was securely attached. The HUCBCs were pipetted directly into each top well at a concentration of 62,000 cells per 25 μL. The migration chambers were then placed in a cell culture incubator at 37° C. with 5% CO2 for 4 hr. The top plates were removed and the bottom plates were then centrifuged (300 rpm for 10 min) to force cells to the bottom. Half the medium (150 μL) was then removed and a cell viability assay (CellTiter-Glo Kit, Promega), which is based on the ability of live cells to incorporate adenosine triphosphate (ATP), was used to determine the numbers of cells that had migrated. The migration plate was read in an automated plate reader (BioTek) set to the appropriate luminescence.

HUCBCs [2] = assay: 96-Chemotx migration assay of HUCBCs to MCAO brain tissue extracts; type: cell-based, human; details: positive control; 4 hours
Source text: In determining the time course of HUCBC migration into brain after a stroke, an ex vivo experimental approach was employed. Male Sprague Dawley rats under a permanent middle cerebral artery occlusion (MCAO); a nylon filament was threaded through the internal carotid artery to the origin of the MCA and permanently ligated in place. At 4, 6, 12, 24, 48, 72 hrs and 1 week after ischemia the animals were euthanized and the brains removed within two min, immediately flash-frozen and then stored at −80° C. until needed. The frozen brains were semi-thawed and kept cold. The striatum, hippocampus, and the cortex were dissected from the sides both ipsilateral and contralateral to the occlusion. The same dissections were performed for sham surgery and normal rats. Tissue from each of the conditions were pooled, and kept on ice in clear Dulbecco's modified Eagle's medium (DMEM, Invitrogen, Carlsbad, Calif.). […]
The cryopreserved HUCBCs were thawed and transferred into clear DMEM with 5% FBS and 1 μL/1 mL of Gentamicin (Sigma, St. Louis). […] Cord blood cells were then plated in low adherence 6 well culture dishes (Corning, Corning, N.Y.) for 24 hrs in a water jacket incubator set at 37° C. and with 5% CO2 After 24 hrs cells were lifted by gentle pipetting, placed in a 15 mL tube, centrifuged, resuspended in 1 mL of media without FBS, and viability assessed using the trypan blue dye exclusion method. […]

HUCBCs [3] = assay: Human cytokine antibody array of HUCBC conditioned medium; type: cell-based; details: Ex Vivo 10 medium; IL-3 5 ng/mL or TPO 25 ng/mL for 5 d; 42-cytokine array
Method: The mononuclear fraction of the HUCBCs was obtained from Saneron CCEL Therapeutics, Inc. (Oldsmar, Fla.). Frozen samples were thawed in 10 mL of DMEM (Gibco), supplemented with 5% fetal bone serum (FBS, Gibco) and gentamicin (50 μg/mL, Sigma), or with Ex Vivo 10 media with gentamicin (50 μg/mL, Sigma). After centrifugation for 10 min at 200 rpm, the supernatant was removed and the cells were resuspended in 1 mL of the same medium. The viability of all samples ranged from 73% to 95% as determined by the ability to exclude trypan blue dye. Cells were then cultured for 3 to 14 d for cytokine arrays and ELISA assays; cells cultured in Ex Vivo 10 media were further stimulated with IL-3, TPO or both.
In order to address this, we used human cytokine arrays to establish whether the HUCBCs secreted these proteins. To determine the cytokines that HUCBCs released during culture, we used a TranSignal human cytokine antibody array (Panomics, Inc., Redwood City, Calif.), which simultaneously profiles either 23 (Array 1.0) or 42 (Array 3.0) cytokines/assay at the protein level. First, we examined whether cytokine production increased as a function of seeding density. The HUCBC were cultured at concentrations of 5, 10, or 30×10^6 per 5 mL of serum free DMEM with Gentamicin (50 μg/mL) for 3 d. […]

| Substance | HUCBC migration to chemoattractant compared to controls (DMEM and PBS) (HUCBCs [1]) | HUCBC migration to SDF-1 chemoattractant compared to all other conditions (HUCBCs [2]) | cytokine release from HUCBCs after stimulation (HUCBCs [3]) |
| --- | --- | --- | --- |
| MCP-1: human recombinant MCP-1 used as chemoattractant | Significantly more HUCBCs migrated |  |  |
| SDF-1: Stromal derived factor 1, chemoattractant used as positive control |  | Significantly more HUCBCs |  |
| TPO: thrombopoietin, factor known to stimulate hematopoietic cells | Significantly more HUCBCs migrated |  | a somewhat different profile of protein release |
